Laboratory results from patent US20080039442A1, “Compounds With Kv4 Ion Channel Activity” (Devgen NV, priority 2004, published 2008).
Like-named read-outs stand apart in the source and are kept apart here.

Key:
human Kv4.3 = target: T1, human Kv4.3 (Homo sapiens, UniProt Q9UK17); assay: C. elegans based high-throughput screen for Kv4.3 modulators (pharynx pumping, Calcein AM uptake), strain UG1755; assay type: in vivo; settings: for Ratio N2/Kv4.3: EC50 on N2 divided by EC50 on the Kv4.3 expressing strain, cut-off 1.8; for EC50: transgenic strain expressing human Kv4.3, read-out: EC50 (μM) Kv4.3 worm
T1 construct: expressed in transfected cells; host or cells: transgenic C. elegans strain UG1755 (plasmid pGV8 integrated; expression in the pharynx)
T1 sequence (Q9UK17 1-655): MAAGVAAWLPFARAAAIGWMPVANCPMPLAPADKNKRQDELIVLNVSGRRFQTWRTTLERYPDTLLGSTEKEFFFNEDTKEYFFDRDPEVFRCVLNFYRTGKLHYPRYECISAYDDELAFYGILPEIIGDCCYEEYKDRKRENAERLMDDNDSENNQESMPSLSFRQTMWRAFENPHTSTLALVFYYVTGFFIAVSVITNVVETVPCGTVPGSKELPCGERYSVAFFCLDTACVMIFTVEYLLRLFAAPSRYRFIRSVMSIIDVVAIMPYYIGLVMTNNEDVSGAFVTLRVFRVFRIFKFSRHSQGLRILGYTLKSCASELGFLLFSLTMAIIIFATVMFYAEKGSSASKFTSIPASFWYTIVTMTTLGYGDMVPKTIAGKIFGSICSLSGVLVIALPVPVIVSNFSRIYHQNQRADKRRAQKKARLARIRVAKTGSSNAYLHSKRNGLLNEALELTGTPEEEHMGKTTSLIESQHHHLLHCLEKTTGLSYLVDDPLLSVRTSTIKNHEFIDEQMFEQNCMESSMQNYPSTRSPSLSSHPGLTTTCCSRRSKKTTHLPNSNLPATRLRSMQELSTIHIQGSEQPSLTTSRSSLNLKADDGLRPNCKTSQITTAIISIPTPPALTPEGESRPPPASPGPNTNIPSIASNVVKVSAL
Description: A C. elegans based high-throughput screen for Kv4.3 modulators has been used to establish an in vivo SAR (structure-activity relationships: the effect of chemical structure on biological activity) on Kv4.3 for the compounds according to the present invention.
This assay has employed a stable transgenic C. elegans strain that functionally expressed human Kv4.3 in the pharynx and a visible selection GFP maker in body-wall muscle.
The method to describe the construction of a transgenic C. elegans strain expressing human Kv4.3 has been described in WO 03/097682. Briefly, the actual used strain UG1755 has been generated by microinjection into the gonad of a wild-type strain N2 with a mix of 5 ng/μl plasmid pGV8 (human Kv4.3), 20 ng/μl pDW2821 (GFP-marker) and 40 ng/μl genomic C. elegans DNA. Transgenic animals have been isolated and submitted to integration of the extra-chromosomal array into the genome of C. elegans. A line with 50% transmission of the functional expressed human Kv4.3 has been mutagenized with gamma irradiation using a Cobalt source. About 12000 F2 animals have been singled out and their progeny has been screened for the 100% transmission of the GFP marker. Lines with 100% transmission of GFP have been considered as potentially integrated. These lines have been further tested and out-crossed with N2 strain two-times. All lines obtained have been tested for viability, GFP and human Kv4.3 expression. At the end of a selection process, UG1755 was identified as most suitable C. elegans strain amenable to high throughput screening (HTS). This stable strain has expressed human Kv4.3 as confirmed by electropharyngeograms (EPG) analysis. The method has been described in WO 03/097682. Briefly, dissected pharynxes of UG1755 C. elegans animals have been prepared and Electropharyngeograms (EPGs) have been recorded using an Axopatch-1D amplifier (Axon instruments). Pharynxes have been equilibrated for about 2 minutes in the bath solution (Dent's saline with 0.5% DMSO) until stable EPG recordings have been seen. Compound solution (DMSO or 100 μM Flecamide) has been added to the bath solution. The number of ultra short EPGs (10-20 ms) and normal EPGs (100-200 ms) has been analyzed and given as ratio in percentage. […] In addition standard qRT-PCR confirmed the presence of the human Kv4.3 transgene in UG1755 as well as human Kv4.3 protein has been detected with the human Kv4.3 antibody P 0358 in the pharynx of UG1755 animals. […]
Introducing the human Kv4.3 channel into the C. elegans pharynx influences the C. elegans action potential in a characteristic fashion. […] The pumping end-point can be technically translated into a high-throughput read-out by the use of a pro-fluorescent dye. […]

[1] = system: C. elegans wild-type strain N2; assay: Same pumping assay format using C. elegans wild-type strain N2; assay type: in vivo; settings: read-out: EC50 (μM) N2 worm
Description: The screening of the compounds according to the present invention has been performed in the C. elegans based high-throughput screen for Kv4.3 modulators described above. The method for testing the activity on human Kv4.3 of the compounds according to the invention with C. elegans strains expressing human Kv4.3 for their activity is the same as the method described in WO 03/097682. The method for testing the compounds on wild-type C. elegans strains not expressing human Kv4.3 is the same as the method described in WO 00/63427. Briefly, UG1755 animals have been grown in large numbers and staged young adults (no or only few eggs inside the uterus) have been harvested on the day of screening. Approximately 125 animals in 80 μl buffer have been dispensed per well of a “U” shaped 96-well compound plate. The compound plate contained already compound material at a final concentration of 30 μM in 0.3% DMSO. […] After another four hours of incubation at 20° C., the drinking of C. elegans animals (or the “reaction” as measured by the uptake of CAM) has been stopped by adding 10 μl of a 60 μM ivermectin solution. The fluorescence intensity (counts per second) has been measured 40 minutes after adding ivermectin with the Wallac plate reader at a wavelength of 535 nm (after excitation at 485 nm). […]

hERG potassium channel = hERG potassium channel (Homo sapiens, UniProt Q12809); assay: Whole cell patch clamp, HEK 293 T-REx HERG cells; settings: 10 μM
Sequence of hERG potassium channel (Q12809 whole entry): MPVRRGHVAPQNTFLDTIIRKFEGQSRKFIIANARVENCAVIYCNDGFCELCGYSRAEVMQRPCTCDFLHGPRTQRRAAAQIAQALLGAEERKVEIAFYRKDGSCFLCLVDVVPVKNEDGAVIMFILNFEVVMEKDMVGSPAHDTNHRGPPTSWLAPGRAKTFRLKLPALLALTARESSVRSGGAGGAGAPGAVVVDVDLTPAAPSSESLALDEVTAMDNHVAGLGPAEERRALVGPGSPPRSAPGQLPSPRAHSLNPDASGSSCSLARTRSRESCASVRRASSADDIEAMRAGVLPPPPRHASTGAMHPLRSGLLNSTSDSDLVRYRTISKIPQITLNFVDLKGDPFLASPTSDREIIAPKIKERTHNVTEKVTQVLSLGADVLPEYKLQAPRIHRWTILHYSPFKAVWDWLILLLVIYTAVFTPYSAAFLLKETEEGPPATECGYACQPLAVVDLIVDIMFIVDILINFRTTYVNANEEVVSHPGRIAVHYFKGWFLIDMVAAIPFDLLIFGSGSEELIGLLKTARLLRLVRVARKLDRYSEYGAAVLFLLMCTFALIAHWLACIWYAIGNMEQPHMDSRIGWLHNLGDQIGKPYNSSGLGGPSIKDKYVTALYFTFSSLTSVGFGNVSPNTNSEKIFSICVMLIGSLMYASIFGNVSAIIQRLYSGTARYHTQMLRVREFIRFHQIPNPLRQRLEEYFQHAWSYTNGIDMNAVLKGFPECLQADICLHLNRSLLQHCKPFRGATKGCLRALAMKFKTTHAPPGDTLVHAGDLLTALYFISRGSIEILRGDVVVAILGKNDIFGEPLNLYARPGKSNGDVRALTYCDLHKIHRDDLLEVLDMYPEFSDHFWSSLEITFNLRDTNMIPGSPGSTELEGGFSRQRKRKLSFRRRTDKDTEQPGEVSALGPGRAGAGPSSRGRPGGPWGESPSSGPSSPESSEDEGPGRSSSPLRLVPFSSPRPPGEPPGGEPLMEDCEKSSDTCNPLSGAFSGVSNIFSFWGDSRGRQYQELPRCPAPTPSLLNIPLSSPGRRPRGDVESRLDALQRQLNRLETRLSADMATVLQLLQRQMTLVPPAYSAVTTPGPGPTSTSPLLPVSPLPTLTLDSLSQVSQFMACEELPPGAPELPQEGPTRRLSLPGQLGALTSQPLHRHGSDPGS

EC50 ([1]; Caenorhabditis elegans) [µM] | melting point [°C] | Compound | Ratio N2/Kv4.3 (human Kv4.3) | EC50 (human Kv4.3) [µM] | EC50 [1] [µM] | hERG (%) (hERG potassium channel)
 |  | 5-chloro-benzofuran-2- carboxylic acid [3- (10,11-dihydro- dibenzo[a,d]cyclohepten- 5-ylidene)-propyl]- methyl-amide [Compound 5] | 5.7 | 4.2 | 24 | 
> 30 |  | C[C@@H](NC(=O)c1cc2cc(Cl)ccc2o1)c1ccc([N+](=O)[O-])cc1 [Compound 1, 5-chloro-benzofuran-2-carboxylic acid [(R)-1-(4-nitro-phenyl)-ethyl]-amide] | >4.9 | 6.1 |  | 
 | 101.3 to 106.3 | O=C(NCc1ccc(OC(F)(F)F)cc1)c1cc2cc(Cl)ccc2o1 [Compound 89, 5-chloro-benzofuran-2-carboxylic acid 4-trifluoromethoxy-benzylamide] |  |  |  | 39
 | 134 to 136.5 | Cc1c(C(=O)NCc2ccc(F)c(C(F)(F)F)c2)sc2ccc(Cl)cc12 [Compound 107, 5-chloro-3-methyl-benzo[b]thiophene-2-carboxylic acid 4-fluoro-3-trifluoromethyl-benzylamide] |  |  |  | 38
